From patent US8901314B2, “Substituted pyrazoles as N-type calcium channel blockers” (Janssen Pharmaceutica NV, priority 2012, dated 2014)

Columns and labels:
[1] = target: α1B (Cav2.2), β3 and α2δ subunits of the N-type calcium channel (stable HEK cell line) (Rattus norvegicus, UniProt Q02294); experiment: Calcium-dye indicator assay (FDSS, KCl depolarization); assay type: cell-based; details: calcium mobilization response to 50 mM KCl; six-point concentration-response
Description: A stable cell line (HEK parent) co-expressing the α1B (Cav2.2), β3 and α2δ subunits of the N-type calcium channel subunits was used. These cells were routinely grown as monolayers in low glucose-containing Dulbecco's Modified Eagle Medium supplemented with 10% FBS, 2 mM L-glutamine, 100 I.U./mL penicillin, 100 μg/mL streptomycin, 400 μg/mL G418 and 200 μg/mL Zeocin (split ratio=1:5). Cells were maintained in 5% CO2 at 37° C. Compounds of Formula (I) were prepared as 10 mM stocks in DMSO from neat compound, if available. Otherwise, the 5 or 10 mM DMSO stock solutions provided in-house were used.
Calcium mobilization responses to KCl depolarization were evaluated by measuring the intensity of calcium-mediated fluorescent signal in the presence of BD Calcium Assay Dye (BD Biosciences, Franklin Lakes, N.J., U.S.A.), utilizing a Functional Drug Screening System (FDSS) by Hamamatsu Corporation (Bridgewater, N.J., U.S.A.).
Twenty-four hours prior to assay, cells were seeded in clear-base poly-D-lysine coated 384-well plates (BD Biosciences) at a density of 5,000 cells per well in culture medium and grown overnight in 5% CO2 at 37° C. On the day of assay growth media were removed and cells were loaded with BD calcium assay dye (BD Biosciences) for 35 min at 37° C. under 5% CO2 and then for 25 min at room temperature. Utilizing the FDSS, cells were exposed to representative compounds of Formula (I) at varying concentrations and intracellular calcium was measured for 5 min prior to the addition of 50 mM KCl for an additional 3 min of measurement.
Maximal fluorescence intensity (FI) achieved upon addition of 50 mM KCl was exported from the FDSS software and further analyzed using GraphPad Prism 4 (Graph Pad Software Inc., CA, U.S.A.). Data were normalized to the maximum average counts from quadruplicate wells for each condition in the presence of 50 mM KCl and to the minimum average counts in the presence of buffer. Theoretical curves were generated using nonlinear regression curve-fitting analysis of either sigmoidal concentration-response or sigmoidal concentration-response (variable slope), and the IC50 values with the best-fit dose curve determined by GraphPad Prism were reported.

[2] = tested on: Cav2.2 (N-type calcium channel; α1B, α2δ and β3 subunits stably expressed in HEK293 cells); experiment: Automated electrophysiology assay (QPatch-HT patch clamp); assay type: cell-based; details: 0.1 μM; for QPatch % Inhibition, High Freq: high frequency stimulation (15th pulse of 5 Hz train); for QPatch % Inhibition, Low Freq: low frequency stimulation (1st pulse of train)
Description: The Cav2.2 (α1B) subunit (GenBank accession no. AAO53230; supplied by Lipscombe's laboratory at Brown University) was subcloned into pcDNA3.1, whereas the α2δ (M86621) and β3 (M88751) subunits were subcloned into pBudCE4.1 vectors. Stable cell lines expressing all three subunits were generated according to the following procedure: 1) HEK293 cells were transfected with α2δ−1/β3 expression constructs resulting in a stable cell line expressing α2δ−1 and β3 subunits that were selected under 200 μg/mL of Zeocin; 2) a stable cell line expressing α2δ−1/β3 subunits in high quantity as evidenced in its Western blots was isolated from the colony and purified; 3) this cell line was further transfected with Cav2.2 expression constructs, from which cells were subsequently selected under 400 μg/mL G418 and 200 μg/mL Zeocin; 4) these cells were clonally isolated, expanded and screened by Western blot analysis for expressing all three subunits
Cultures of cells stably expressing Cav2.2 were maintained at 37° C. in low glucose-containing Dulbecco's Modified Eagle medium (low glucose) under a 5% CO2 atmosphere. The medium was supplemented with 10% fetal bovine serum, 2 mM L-glutamine, 100 IU/mL penicillin, […] streptomycin, 400 μg/mL G418 and 200 μg/mL Zeocin.
High-throughput automated patch clamp system experiments were carried out using instruments (QPatch-HT) available from Sophion Biosciences, Inc. North Brunswick, N.J. Cells were grown in T175 flasks to 50%-90% confluence were enzymatically treated with Deatchin (Genlantis, San Diego, Calif., U.S.A.), centrifuged, rinsed and resuspended in 293 SFM II media (Life Technologies, Grand Island, N.Y., U.S.A.) supplemented with 25 mM HEPES (Sigma-Aldrich, St. Louis, Mo., U.S.A.) to a concentration of 2−3×10^6 cells/mL. Cells were added to automated cell preparation station on the QPatch-HT (Sophion Biosciences, North Brunswick, N.J., U.S.A.) and following a 10- to 30-min recovery period with gentle stirring, the assay protocol was initiated. During the automated cell preparation, cells were collected, centrifuged and resuspended in an extracellular (EC) solution containing 132 mM NaCl, 1.8 mM CaCl2, 5.4 mM KCl, 0.8 mM MgCl2, 10 mM glucose, and 10 mM HEPES (pH=7.4), adjusted with sucrose to 315 m0sm. The QPlate was primed with an intracellular solution containing 135 CsCl, 10 mM EGTA, 4 MgATP, 0.3 NaGTP, and 20 mM HEPES (pH=7.2), adjusted to approximately 290 m0sm with deionized water and the EC solution. Cells were added to the prepared QPlate wells by robotic pipettes of the QPatch-HT.
For cells determined to be in stable whole-cell patch clamp, the EC solution was replaced with a barium (Ba)/triethylammonium (TEA) solution containing 140 mM TEA-Cl, 10 mM BaCl2, 0.8 mM MgCl2, 10 mM glucose, and 10 mM HEPES (pH=7.4). High (40 mM) BaCl2 concentrations were made with adjustments of TEA-Cl (90 mM) to maintain the osmolarity. From a resting potential of −80 mV, a train of depolarizing pulses (15 pulses at 5 Hz, +20 mV) was delivered to the cell once every 30 sec for eight trains (4 min total), and the resulting currents were measured during a control period (no compound). This protocol was repeated for each subsequent addition of control buffer with or without compound (three periods total, each with four trains). The current generated in the 1st and 15th pulses of the last train of each period in the presence of each drug concentration was normalized to the current generated during the control period at the respective pulses (representing low- and high frequency stimulation, respectively). Data from both the second and third drug application period were analyzed for each cell. A final addition of Ba/TEA solution containing 60-100 uM CdCl2 was made to block all N-type current and “zero” the currents for each cell. A buffer/compound additions were made using a “spitting” feature of the QPatch-HT, which added three repretitions of 5 μL solution at the beginning of each recording period.

| Compound | IC50 [1] [nM] | QPatch % Inhibition, High Freq [2] [%] | QPatch % Inhibition, Low Freq [2] [%] |
| --- | --- | --- | --- |
| COc1ccccc1-n1nc(C2=C[C@H](C)O[C@@H](C)C2)cc1-c1ccc(Cl)cc1 (relative stereo) [Compound 96, 5-(4-Chlorophenyl)-3-[(trans)-2,6-dimethyl-3,6-dihydro-2H-pyran-4-yl]-1-(2-methoxyphenyl)-1H-pyrazole] | 8.2 | 29 | −20 |
| COc1ccccc1-n1nc(C2CC(C)(C)OC(C)(C)C2)cc1-c1ccc(Cl)cc1 [Compound 1, 5-(4-Chloro-phenyl)-1-(2-methoxy-phenyl)-3-(2,2,6,6-tetramethyl-tetrahydro-pyran-4-yl)-1H-pyrazole] | 1.7 | 63 | 58 |
| COc1ccccc1-n1nc(C2CC(C)(C)OC(C)(C)C2)cc1-c1ccc(C#N)cc1 [Compound 2, 4-[1-(2-Methoxyphenyl)-3-(2,2,6,6-tetramethyltetrahydro-2H-pyran-4-yl)-1H-pyrazol-5-yl]-benzonitrile] | 1.1 | 53.5 | 56.5 |
| COc1ccccc1-n1nc(C2CC(C)(C)OC(C)(C)C2)cc1-c1ccc(Cl)cc1F [Compound 3, 5-(4-Chloro-2-fluorophenyl)-1-(2-methoxyphenyl)-3-(2,2,6,6-tetramethyltetrahydro-2H-pyran-4-yl)-1H-pyrazole] | 1 | 42 | 34 |
| COc1ccccc1-n1nc(C2CC(C)(C)OC(C)(C)C2)cc1-c1ccc2c(c1)OCO2 [Compound 4, 5-(1,3-Benzodioxol-5-yl)-1-(2-methoxyphenyl)-3-(2,2,6,6-tetramethyltetrahydro-2H-pyran-4-yl)-1H-pyrazole] | 1 | 39 | 35 |
| COc1ccc(-c2cc(C3CC(C)(C)OC(C)(C)C3)nn2-c2ccccc2OC)cc1 [Compound 5, 1-(2-Methoxyphenyl)-5-(4-methoxyphenyl)-3-(2,2,6,6-tetramethyltetrahydro-2H-pyran-4-yl)-1H-pyrazole] | 1.3 | 67 | 59 |
| COc1ccccc1-n1nc(C2CC(C)(C)OC(C)(C)C2)cc1-c1ccc(SC)cc1 [Compound 6, 1-(2-Methoxyphenyl)-5-[4-(methylsulfanyl)phenyl]-3-(2,2,6,6-tetramethyltetrahydro-2H-pyran-4-yl)-1H-pyrazole] | 1.1 | 48 | 48 |
| COc1ccccc1-n1nc(C2CC(C)(C)OC(C)(C)C2)cc1C1=CCC(C)(C)CC1 [Compound 8, 5-(4,4-Dimethylcyclohex-1-en-1-yl)-1-(2-methoxyphenyl)-3-(2,2,6,6-tetramethyltetrahydro-2H-pyran-4-yl)-1H-pyrazole] | 1.6 | 40 | 37 |
| CCOc1ccc(-c2cc(C3CC(C)(C)OC(C)(C)C3)nn2-c2ccccc2OC)cc1 [Compound 9, 5-(4-Ethoxyphenyl)-1-(2-methoxyphenyl)-3-(2,2,6,6-tetramethyltetrahydro-2H-pyran-4-yl)-1H-pyrazole] | 2.3 | 47.5 | 34 |
| COc1ccccc1-n1nc(C2CC(C)(C)OC(C)(C)C2)cc1-c1ccc(C)cc1 [Compound 10, 1-(2-Methoxyphenyl)-5-(4-methylphenyl)-3-(2,2,6,6-tetramethyltetrahydro-2H-pyran-4-yl)-1H-pyrazole] | 2 | 38 | 46 |
| COc1ccccc1-n1nc(C2CC(C)(C)OC(C)(C)C2)cc1-c1ccc(C(C)=O)cc1 [Compound 12, 1-{4-[1-(2-Methoxyphenyl)-3-(2,2,6,6-tetramethyltetrahydro-2H-pyran-4-yl)-1H-pyrazol-5-yl]phenyl}ethanone] | 2.6 | 41 | 30 |
| COc1ccc(-c2cc(C3CC(C)(C)OC(C)(C)C3)nn2-c2ccccc2OC)cn1 [Compound 13, 2-Methoxy-5-[1-(2-methoxyphenyl)-3-(2,2,6,6-tetramethyltetrahydro-2H-pyran-4-yl)-1H-pyrazol-5-yl]pyridine] | 4.9 | 47.5 | 32 |
| COc1ccccc1-n1nc(C2CC(C)(C)OC(C)(C)C2)cc1-c1ccc(Cl)s1 [Compound 14, 5-(5-Chlorothiophen-2-yl)-1-(2-methoxyphenyl)-3-(2,2,6,6-tetramethyltetrahydro-2H-pyran-4-yl)-1H-pyrazole] | 6.2 | 74.5 | 63 |
| COc1ccccc1-n1nc(C2CC(C)(C)OC(C)(C)C2)cc1-c1ccc(C(C)(C)C)cc1 [Compound 15, 5-(4-tert-Butylphenyl)-1-(2-methoxyphenyl)-3-(2,2,6,6-tetramethyltetrahydro-2H-pyran-4-yl)-1H-pyrazole] | 4.9 | 37 | 20 |
| COc1ccccc1-n1nc(C2CC(C)(C)OC(C)(C)C2)cc1-c1ccccc1 [Compound 16, 1-(2-Methoxyphenyl)-5-phenyl-3-(2,2,6,6-tetramethyltetrahydro-2H-pyran-4-yl)-1H-pyrazole] | 5.1 | 51 | 37 |
| CCOC(=O)c1ccc(-c2cc(C3CC(C)(C)OC(C)(C)C3)nn2-c2ccccc2OC)cc1 [Compound 17, Ethyl 4-[1-(2-methoxyphenyl)-3-(2,2,6,6-tetramethyltetrahydro-2H-pyran-4-yl)-1H-pyrazol-5-yl]benzoate] | 5.1 | 82 | 84 |
